Earlier results, collected in US7993684B2, “Method of inhibiting alveolar bone resorption and periodontal membrane loss and composition for internal use to be used therein” (Sunstar Inc., priority 2003, dated 2011).

Experiments:
alveolar bone resorption = conditions: Japanese Unexamined Patent Publication No. 1996-133969
[1] = tested on: periodontal disease-causing bacteria; conditions: Japanese Unexamined Patent Publication No. 1992-283518

Molecule | Inhibition of alveolar bone resorption related to periodontal disease (alveolar bone resorption) | Antibacterial activity against periodontal disease-causing bacteria [1]
calcium pantothenate | inhibit alveolar bone resorption | –
O=c1c(-c2ccc(O)cc2)coc2cc(O)cc(O)c12 [genistein] | – | shows antibacterial activity
